Data as given in US20240051946A1, “TARGETED PROTEIN DEGRADATION OF PARP14 FOR USE IN THERAPY” (Ribon Therapeutics, Inc., priority 2022, published 2024).

What was measured:
[1] = molecular target: T1, catalytic domain of human PARP14 (residues 1611 to 1801) with NanoLuc tag (Homo sapiens, UniProt Q460N5); assay: NanoLuc assay for the degradation of PARP14; assay type: cell-based; settings: Assay A; NanoLuc-PARP14 overexpressed in HEK-293T cells; 2 hours at 37 degrees; luminescence
T1 construct: expressed in transfected cells; host or cells: HEK-293T cells (ATCC), plasmid pRTX240 in pcDNA3.1(-)
T1 sequence (Q460N5 1611-1801): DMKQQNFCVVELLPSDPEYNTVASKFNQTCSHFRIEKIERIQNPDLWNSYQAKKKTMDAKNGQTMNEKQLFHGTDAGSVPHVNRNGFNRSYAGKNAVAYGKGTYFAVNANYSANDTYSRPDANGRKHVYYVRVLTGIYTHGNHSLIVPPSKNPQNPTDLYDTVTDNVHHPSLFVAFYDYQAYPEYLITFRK
Procedure, shortened: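 HEK-293T cells transiently transfected 24 hrs with N-terminal NanoLuc-tagged human PARP14 catalytic domain (residues 1611-1801), then exposed to compound dose response for 2 hours at 37 degrees. NanoGlo luminescence expressed as % of 0.1% DMSO wells; DC50 from floating 4-parameter fit, reported as banded ranges.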

[2] = system: Alternaria asthma mouse model; assay: Alternaria asthma mouse model: cell counts and cytokines in BALF; assay type: in vivo; settings: for total cell counts in BALF: 30 and 100 mg/kg once daily for 7 days subcutaneous, vs vehicle P<0.05
Experimental: The effect of Compound 17 was studied in an Alternaria asthma mouse model. On days 1-5, male Balb/c mice under isoflurane anesthesia were challenged by instilling solution of 5 μg (protein weight) Alternaria in 40 μL of PBS into each nostril. Compound 17 was administered two days prior to Alternaria challenge (defined day as day −1) and animals were treated with vehicle (10% DMSO/45% PEG-400/45% ‘20% HP-3-CD’ in water) or Compound 17 (30 and 100 mg/kg) once daily for 7 days (defined as day −1 to day 5) by subcutaneous injection. Total and differential cell counts of the BALF fluid samples were measured using a XT-2000iV analyzer (Sysmex). Cytokine concentrations of BALF supernatant were measured in samples from all groups using ELISA kit (Biotechne, UK). Statistical significance is calculated using one-way ANOVA followed by Dunnett's post-tests in which the treatment groups were compared to vehicle control (P<0.05).

[3] = male Balb/c mice, Alternaria challenge, 30 and 100 mg/kg once daily 7 days s.c., dose-dependent starting from 30 mg/kg

DC50 [1]: < 100 nM
Structure (SMILES): O=C1CCC(Nc2ccc(C3CCN(CC4CCN(C(=O)CN5CCC(SCc6nc7cc(OCC8CCOCC8)cc(F)c7c(=O)[nH]6)CC5)CC4)CC3)cc2)C(=O)N1 (centres unmarked) [Example 17, 3-((4-(1-((1-(2-(4-(((5-fluoro-4-oxo-7-((tetrahydro-2H-pyran-4-yl)methoxy)-3,4-dihydroquinazolin-2-yl)methyl)thio)piperidin-1-yl)acetyl)piperidin-4-yl)methyl)piperidin-4-yl)phenyl)amino)piperidine-2,6-dione]
eosinophil in BALF ([2]; FIG. 2A legend, dose-dependent starting from 100 mg/kg): significantly reduces
cytokine IL-33 in BALF ([2]; FIG. 2B legend, dose-dependent starting from 100 mg/kg): significantly reduces
cytokine IL-4 in BALF ([2]; FIG. 2C legend, dose-dependent starting from 100 mg/kg): significantly reduces
cytokine IL-5 in BALF ([2]; FIG. 2D legend, dose-dependent starting from 100 mg/kg): significantly reduces
cytokine IL-4 in BALF [2, 3]: significantly reduces
cytokine IL-5 in BALF [2, 3]: significantly reduces
cytokine IL-33 in BALF [2, 3]: significantly reduces
eosinophils in BALF [2, 3]: significantly reduces
total cell counts in BALF ([2]; male Balb/c mice, Alternaria challenge, dose-dependent starting from 30 mg/kg): dose-dependent reduction
total cell counts in BALF ([2]; male Balb/c mice, Alternaria challenge, dose-dependent starting from 30 mg/kg, listed as Compound 17): significantly reduces
